# Measurements taken from patent EP0185961A2, “1-Phenyl-imidazole-5-carboxylic acid derivatives, process for their preparation and their use as growth regulators” (HOECHST AKTIENGESELLSCHAFT, priority 1984, dated 1986).
# Where two headings read alike, the source gives them in different places.
# Columns and labels:
# Roggen = assay: Growth inhibition in cereals, greenhouse tray test, sprayed at 3-leaf stage; assay type: in vivo; details: % of growth increment of untreated controls; for pest or weed control at 1250 g/ha / pest or weed control at 2500 g/ha: read-out: Wuchsshemmung in % bei Roggen
# Source text: (§1) In Schalenversuchen im Gewächshaus werden junge Getreidepflanzen (Weizen, Gerste, Roggen) im 3-Blattstadium mit erfindungsgemäßen Verbindungen in verschiedenen Wirkstoffkonzentrationen (kg/ha) tropfnaß gespritzt. […]
# Weizen = assay: as above; assay type: in vivo; details: % of growth increment of untreated controls (100% = growth standstill); for pest or weed control at 1250 g/ha / pest or weed control at 2500 g/ha: read-out: Wuchsshemmung in % bei Weizen
# Source text: as §1
# Gerste = assay: as above; assay type: in vivo; details: % of growth increment of untreated controls; for pest or weed control at 1250 g/ha / pest or weed control at 2500 g/ha: read-out: Wuchsshemmung in % bei Gerste
# Source text: (§2) In Schalenversuchen im Gewächshaus werden junge Getreidepflanzen (Weizen, Gerste, Roggen) im 3-Blattstadium mit erfindungsgemäßen Verbindungen in verschiedenen Wirkstoffkonzentrationen (kg/ha) tropfnaß gespritzt.
# (§3) Es wird außerdem die phytotoxische Wirkung der Verbindung beobachtet.
# [1] = test system: Getreidepflanzen (Weizen, Gerste, Roggen); assay: Phytotoxic effect observed in the cereal growth inhibition test; assay type: in vivo; details: cereals; one cell for 2,5 and 1,25 kg/ha
# Source text: as §2, §3
# Reispflanzen [2] = details: in vivo
# Source text: (§4) Reispflanzen werden in Kleinparzellen (2 m x 2 m) angezogen und im Stadium der maximalen Bestockung mit erfindungsgemäßen Verbindungen behandelt. Die Substanzen werden sowohl durch Spritzung appliziert als auch in das Wasser gegeben.
# (§5) 3 Wochen nach der Behandlung wird bei allen Pflanzen der Zuwachs gemessen und die Wuchshemmung in % des Zuwachses der Kontrollpflanzen berechnet. Es wird außerdem auf eine mögliche phytotoxische Wirkung der Verbindungen geachtet.
# (§6) Die Wuchshemmung wird als prozentualer Wert ermittelt, wobei 100% den Stillstand des Wachstums und 0% ein Wachstum entsprechend dem der unbehandelten Kontrollpflanzen bedeuten.
# Sojabohnen [3] = details: in vivo
# Source text: (§7) Etwa 10 cm große Sojabohnen werden mit den Wirkstoffzubereitungen tropfnaß bespritzt. Nach 3 Wochen wird bonitiert.
# as §6
# Sojabohnen [4] = assay: Growth inhibition in soybeans; details: for pest or weed control at 2500 g/ha: Glycine max, 504 h, read-out: Wuchsshemmung (%); for Phytotox. Wirkung: soybeans, 2,5 kg/ha
# Source text: as §7, §6
# Reispflanzen [5] = assay: Growth inhibition in paddy rice, small plots; details: for pest or weed control at 620 g/ha / pest or weed control at 1250 g/ha: Oryza sativa, 504 h, read-out: Wuchsshemmung (%); for Phytotox. Wirkung: paddy rice, one cell for 1,25 and 0,62 kg/ha
# Source text: as §4, §5, §6
molecule,measurement,setting,value
2-Chlorethyltriethylammoniumchlorid [reference compound],Wuchsshemmung in % bei Roggen,"Roggen; 1,25 kg/ha",0%
same,Wuchsshemmung in % bei Roggen,"Roggen; 2,5 kg/ha",10%
same,Wuchsshemmung in % bei Weizen,"Weizen; 1,25 kg/ha",23%
same,Wuchsshemmung in % bei Weizen,"Weizen; 2,5 kg/ha",27%
same,Wuchsshemmung in % bei Gerste,"Gerste; 1,25 kg/ha",0%
same,Wuchsshemmung in % bei Gerste,"Gerste; 2,5 kg/ha",8%
same,Phytotox. Wirkung,[1],keine Schäden
"CCc1cccc(CC)c1-n1cncc1C(=O)ON1C(=O)c2ccccc2C1=O [Beispiel 2, Pthalimido-1-(2,6-diethylphenyl)-imidazol-5-carboxylat]",pest or weed control at 1250 g/ha,"Roggen; 1,25 kg/ha",21%
same,pest or weed control at 2500 g/ha,"Roggen; 2,5 kg/ha",27%
same,pest or weed control at 1250 g/ha,"Weizen; 1,25 kg/ha",12%
same,pest or weed control at 2500 g/ha,"Weizen; 2,5 kg/ha",23%
same,pest or weed control at 1250 g/ha,"Gerste; 1,25 kg/ha",18%
same,pest or weed control at 2500 g/ha,"Gerste; 2,5 kg/ha",37%
same,Phytotox. Wirkung,[1],keine Schäden
same,Phytotox. Wirkung,Reispflanzen [2],keine Schäden
same,Phytotox. Wirkung,Sojabohnen [3],keine Schäden
same,pest or weed control at 2500 g/ha,Sojabohnen [4],20%
same,pest or weed control at 620 g/ha,Reispflanzen [5],25%
same,pest or weed control at 1250 g/ha,Reispflanzen [5],22%
"CCc1cccc(CC)c1-n1cncc1C(=O)NCCO [Beispiel 3, N-(2-Hydroxyethyl)-1-(2,6-diethylphenyl)-imidazol-5-carb-oxyamid]",pest or weed control at 1250 g/ha,"Roggen; 1,25 kg/ha",20%
same,pest or weed control at 2500 g/ha,"Roggen; 2,5 kg/ha",26%
same,pest or weed control at 1250 g/ha,"Weizen; 1,25 kg/ha",13%
same,pest or weed control at 2500 g/ha,"Weizen; 2,5 kg/ha",22%
same,pest or weed control at 1250 g/ha,"Gerste; 1,25 kg/ha",17%
same,pest or weed control at 2500 g/ha,"Gerste; 2,5 kg/ha",35%
same,Phytotox. Wirkung,[1],keine Schäden
same,Phytotox. Wirkung,Reispflanzen [2],keine Schäden
same,Phytotox. Wirkung,Sojabohnen [3],keine Schäden
same,pest or weed control at 2500 g/ha,Sojabohnen [4],21%
same,pest or weed control at 620 g/ha,Reispflanzen [5],16%
same,pest or weed control at 1250 g/ha,Reispflanzen [5],21%
"CCc1cccc(CC)c1-n1cncc1C(=O)OCSC [Beispiel 4, Methylthiomethyl-1-(2,6-diethylphenyl)-imidazol-5-carboxylat]",pest or weed control at 1250 g/ha,"Roggen; 1,25 kg/ha",20%
same,pest or weed control at 2500 g/ha,"Roggen; 2,5 kg/ha",26%
same,pest or weed control at 1250 g/ha,"Weizen; 1,25 kg/ha",14%
same,pest or weed control at 2500 g/ha,"Weizen; 2,5 kg/ha",21%
same,pest or weed control at 1250 g/ha,"Gerste; 1,25 kg/ha",17%
same,pest or weed control at 2500 g/ha,"Gerste; 2,5 kg/ha",34%
same,Phytotox. Wirkung,[1],keine Schäden
same,pest or weed control at 2500 g/ha,Sojabohnen [4],21%
same,Phytotox. Wirkung,Sojabohnen [4],keine Schäden
same,pest or weed control at 620 g/ha,Reispflanzen [5],16%
same,pest or weed control at 1250 g/ha,Reispflanzen [5],21%
same,Phytotox. Wirkung,Reispflanzen [5],keine Schäden
"CCc1cccc(CC)c1-n1cncc1-c1nnn[nH]1 [Beispiel 5, 1-(2,6-Diethylphenyl)-5-(5-tetrazolyl)-imidazol]",pest or weed control at 1250 g/ha,"Roggen; 1,25 kg/ha",9%
same,pest or weed control at 2500 g/ha,"Roggen; 2,5 kg/ha",21%
same,pest or weed control at 1250 g/ha,"Weizen; 1,25 kg/ha",9%
same,pest or weed control at 2500 g/ha,"Weizen; 2,5 kg/ha",18%
same,pest or weed control at 1250 g/ha,"Gerste; 1,25 kg/ha",13%
same,pest or weed control at 2500 g/ha,"Gerste; 2,5 kg/ha",30%
same,Phytotox. Wirkung,[1],keine Schäden
same,Phytotox. Wirkung,Reispflanzen [2],keine Schäden
same,Phytotox. Wirkung,Sojabohnen [3],keine Schäden
same,pest or weed control at 2500 g/ha,Sojabohnen [4],18%
same,pest or weed control at 620 g/ha,Reispflanzen [5],11%
same,pest or weed control at 1250 g/ha,Reispflanzen [5],19%
"CCc1cccc(CC)c1-n1cncc1C=NO [Beispiel 14, 1-(2,6-Diethylphenyl)-5-hydroximinomethyl-imidazol]",pest or weed control at 1250 g/ha,"Roggen; 1,25 kg/ha",13%
same,pest or weed control at 2500 g/ha,"Roggen; 2,5 kg/ha",24%
same,pest or weed control at 1250 g/ha,"Weizen; 1,25 kg/ha",11%
same,pest or weed control at 2500 g/ha,"Weizen; 2,5 kg/ha",19%
same,pest or weed control at 1250 g/ha,"Gerste; 1,25 kg/ha",16%
same,pest or weed control at 2500 g/ha,"Gerste; 2,5 kg/ha",32%
same,Phytotox. Wirkung,[1],keine Schäden
same,pest or weed control at 2500 g/ha,Sojabohnen [4],20%
same,Phytotox. Wirkung,Sojabohnen [4],keine Schäden
same,pest or weed control at 620 g/ha,Reispflanzen [5],13%
same,pest or weed control at 1250 g/ha,Reispflanzen [5],21%
same,Phytotox. Wirkung,Reispflanzen [5],keine Schäden
C#CCOC(=O)c1cncn1-c1c(CC)cccc1CC [Beispiel 37],pest or weed control at 1250 g/ha,"Roggen; 1,25 kg/ha",7%
same,pest or weed control at 2500 g/ha,"Roggen; 2,5 kg/ha",19%
same,pest or weed control at 1250 g/ha,"Weizen; 1,25 kg/ha",8%
same,pest or weed control at 2500 g/ha,"Weizen; 2,5 kg/ha",15%
same,pest or weed control at 1250 g/ha,"Gerste; 1,25 kg/ha",12%
same,pest or weed control at 2500 g/ha,"Gerste; 2,5 kg/ha",25%
same,Phytotox. Wirkung,[1],keine Schäden
same,pest or weed control at 2500 g/ha,Sojabohnen [4],17%
same,Phytotox. Wirkung,Sojabohnen [4],keine Schäden
same,pest or weed control at 620 g/ha,Reispflanzen [5],11%
same,pest or weed control at 1250 g/ha,Reispflanzen [5],19%
same,Phytotox. Wirkung,Reispflanzen [5],keine Schäden
